This note sets out measurements from patent US20230165252A1, “ACTIVE COMPOUND COMBINATIONS” (Bayer Aktiengesellschaft, priority 2020, published 2023).

Values joined by “and” are separate entries in the source; they are usually repeats but may differ in a detail not shown here. Equal values may be shown once. Read-outs that look alike come from different tables or passages of the source.

Format in all cases: cell-based
For experiment [1], the system named is Alternaria alternate. Description: in vitro-Test with Alternaria alternate (microtiter growth inhibition). Particulars: for inhibition of growth at 0.008 ppm / inhibition of growth at 0.04 ppm / inhibition of growth at 0.2 ppm / inhibition of growth at 1 ppm / inhibition of growth at 0.8 ppm / inhibition of growth at 4 ppm / inhibition of growth at 20 ppm: Alternaria. In outline: (§1)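 Fungal spores or mycelium in liquid potato dextrose medium are incubated on wells pre-coated with evaporated test material at 20° C. and 85% humidity. Absorbance at 620 nm is taken initially and 3-5 days post-application; efficacy (%) is scaled from untreated control growth (0%) to no growth (100%).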

Experiment [2] concerns Diaporthe citri. Kind of experiment: in vitro-Test with Diaporthe citri (microtiter growth inhibition). Particulars: applied alone. In outline:
as §1

Experiment [3] concerns Ustilago segetum var. avenae. Description: in vitro-Test with Ustilago segetum var. avenae (microtiter growth inhibition). Particulars: single compound. As to the method:
(§2) The degree of efficacy expressed in % is denoted: 0% means an efficacy, which corresponds to that of the control, while an efficacy of 100% means that no disease is observed.
(§3) If the actual fungicidal activity exceeds the calculated value, then the activity of the combination is super-additive, i.e. a synergistic effect exists. In this case, the efficacy, which was actually observed, must be greater than the value for the expected efficacy (E), that was calculated from the abovementioned formula.
(§4) Example: In Vitro-Test with Fungal Microorganisms
(§5) Wells of 96-well microtiter plates are filled with 10 μl of a preparation of test compound or compound combination in methanol+emulsifier alkylaryl-polyglycol-ether. Thereafter, the solvent is evaporated in a hood. At the next step, 100 μl of liquid potato dextrose medium is given into each well, that has been amended with an appropriate concentration of spores or mycelium suspension of the test fungus.
(§6) With the aid of a photometer, the extinction in all wells is measured at the wavelength of 620 nm.
(§7) The microtiter plates are incubated at 20° C. and 85% relative humidity. The inhibition of growth is determined again photometrically 3-5 days after the application. Efficacy is calculated in relation to the untreated control, 0% efficacy means fungal growth as high as in untreated control while 100% efficacy means no fungal growth is measured.

In experiment [4] the test system is Fusarium culmorum. Kind of experiment: in vitro-Test with Fusarium culmorum (microtiter growth inhibition). As to the method:
as §2, §3, §4, §5, §6, §7

Experiment [5] relates to Cercospora beticola. Kind of experiment: in vitro-Test with Cercospora beticola (microtiter growth inhibition). Particulars: alone. As to the method:
as §2, §3, §4, §5, §6, §7

The test system of experiment [6] is Cordana musae. Description: in vitro-Test with Cordana musae (microtiter growth inhibition). Particulars: single substance. As for the experimental part:
as §2, §3, §4, §5, §6, §7

Experiment [7] deals with Botrytis cinerea. Description: in vitro-Test with Botrytis cinerea (microtiter growth inhibition). Particulars: applied alone. As to the method: as §2, §3, §4, §5, §6, §7
Setting [8] is: 0.008 ppm, alone, read-out: Efficacy %.
Where [9] appears, read: 0.04 ppm, alone, read-out: Efficacy %.
Where [10] appears, read: 1.0 ppm, alone, read-out: Efficacy %.
The mark [11] stands for this setting: applied alone, 0.008 ppm, read-out: Efficacy.
Setting [12] is: applied alone, 0.2 ppm, read-out: Efficacy.
[13] abbreviates: Diaporthe citri, 0.04 ppm, read-out: Efficacy.
[14] abbreviates: Diaporthe citri, 1.0 ppm, read-out: Efficacy.
The mark [15] stands for this setting: Fusarium culmorum, 0.04 ppm, read-out: Efficacy.
[16] abbreviates: Fusarium culmorum, 1.0 ppm, read-out: Efficacy.
[17] abbreviates: Cercospora beticola, 0.008 ppm, read-out: Efficacy %.
[18] abbreviates: Cercospora beticola, read-out: Efficacy %.
[19] abbreviates: Cercospora beticola, 1.0 ppm, read-out: Efficacy %.
Where [20] appears, read: applied alone, read-out: Efficacy.
The mark [21] stands for this setting: Diaporthe citri, read-out: Efficacy.
[22] abbreviates: Fusarium culmorum, read-out: Efficacy.
Where [23] appears, read: Neocordana musae, read-out: Efficacy.

Turning to `CC(C)c1ccc(Cl)cc1CN(C(=O)c1c(C(F)F)nn(C)c1F)C1CC1` [isoflucypram], the Efficacy % is 44% and 41% in experiment [1] (0.008 ppm, alone); 69% and 76% in experiment [1] (0.04 ppm, alone); 85% and 81% in experiment [1] (0.2 ppm, alone); 74% in experiment [1] (1.0 ppm, alone); 0% in experiment [3] (0.008 ppm); 45% in experiment [3] (0.04 ppm). In addition, the Efficacy % in experiment [3] (0.2 ppm) is 100%; in experiment [3] (1.0 ppm) it was 100%; in experiment [5] (0.008 ppm), 11%; in experiment [5] (0.04 ppm) it was 16%; in experiment [5] (1.0 ppm) it was 35% and 39%. Also, the Efficacy in experiment [1] (applied alone, 0.008 ppm) is listed as 53%; in experiment [1] (applied alone, 0.04 ppm), 71%; in experiment [1] (applied alone, 0.2 ppm) it was 73%; in experiment [2] (0.008 ppm) it was 0%; in experiment [2] (0.04 ppm) it was 0%; in experiment [2] (0.2 ppm) it was 0%. For the same compound, the Efficacy in experiment [2] (1.0 ppm) was 49% and 41%; in experiment [4] (0.008 ppm), 0%; in experiment [4] (0.04 ppm) it was 0%; in experiment [4] (0.2 ppm), 0%; in experiment [4] (1.0 ppm), 0%; in experiment [6] (0.008 ppm), 0%. Also, the Efficacy was 10% and 12% in experiment [6] (0.04 ppm); 0% in experiment [6] (0.2 ppm); 18% and 8% in experiment [6] (1.0 ppm).
With `CC(C)(C)C(O)(CCc1ccc(Cl)cc1)Cn1cncn1` (stereo not drawn) [tebuconazole], the inhibition of growth at 0.008 ppm in experiment [1] (setting [8]) worked out at 11%; in experiment [1] (setting [11]) it was 0%; in experiment [5] (setting [17]) it was 0%. Moreover, the inhibition of growth at 0.04 ppm in experiment [1] (setting [9]) stood at 9%; in experiment [1] (applied alone, 0.04 ppm, read-out: Efficacy), 14%; in experiment [2] (setting [13]), 47%; in experiment [4] (setting [15]), 0%; in experiment [5] (Cercospora beticola, 0.04 ppm, read-out: Efficacy %), 22%. Also, the inhibition of growth at 0.2 ppm in experiment [1] (0.2 ppm, alone, read-out: Efficacy %) was 32%; in experiment [1] (setting [12]), 48%; in experiment [2] (Diaporthe citri, 0.2 ppm, read-out: Efficacy) it was 96%; in experiment [5] (setting [18]), 83%; in experiment [6] (Neocordana musae, 0.2 ppm, read-out: Efficacy), 2%. Further, the inhibition of growth at 1 ppm in experiment [1] (setting [10]) was found to be 98%; in experiment [1] (applied alone, 1.0 ppm, read-out: Efficacy), 99%; in experiment [2] (setting [14]), 98%; in experiment [4] (setting [16]), 99%; in experiment [5] (setting [19]), 100%. Moreover, the Efficacy in experiment [7] (0.008 ppm) is reported as 0%; in experiment [7] (0.04 ppm) it was 8%; in experiment [7] (0.2 ppm), 20%; in experiment [7] (1.0 ppm), 100%.
Regarding `CC1COC(Cn2cncn2)(c2ccc(Oc3ccc(Cl)cc3)cc2Cl)O1` (stereo not drawn) [difenoconazole], the inhibition of growth at 0.008 ppm in experiment [1] (setting [8]) was found to be 8%; in experiment [1] (setting [11]) it was 11%; in experiment [4] (Fusarium culmorum, 0.008 ppm, read-out: Efficacy) it was 3%; in experiment [5] (setting [17]), 9%; in experiment [6] (Neocordana musae, 0.008 ppm, read-out: Efficacy), 0%. Also, the inhibition of growth at 0.04 ppm is 4% in experiment [1] (setting [9]); 13% in experiment [2] (setting [13]); 4% in experiment [3] (0.04 ppm, read-out: Efficacy %); 8% in experiment [4] (setting [15]). Further, the inhibition of growth at 1 ppm in experiment [1] (setting [10]) worked out at 98%; in experiment [2] (setting [14]) it was 88%; in experiment [3] (1.0 ppm, read-out: Efficacy %) it was 100%; in experiment [4] (setting [16]), 0%; in experiment [5] (setting [19]), 100%; in experiment [6] (Neocordana musae, 1.0 ppm, read-out: Efficacy), 42%. Besides, the inhibition of growth at 0.2 ppm in experiment [1] (setting [12]) was 3%; in experiment [3] (0.2 ppm, read-out: Efficacy %), 70%; in experiment [4] (Fusarium culmorum, 0.2 ppm, read-out: Efficacy), 0%; in experiment [5] (setting [18]), 68%. Besides, the Efficacy in experiment [2] (0.008 ppm) is recorded as 0%.
Regarding `O=C(NCCc1ncc(C(F)(F)F)cc1Cl)c1ccccc1C(F)(F)F` [fluopyram], the inhibition of growth at 0.8 ppm turned out to be 77% in experiment [1] (alone, read-out: Efficacy %); 81% in experiment [1] (setting [20]); 1% in experiment [4] (setting [22]); 0% in experiment [6] (setting [23]). For the same compound, the inhibition of growth at 4 ppm in experiment [1] (alone, read-out: Efficacy %) is 94%; in experiment [1] (setting [20]) it was 85%; in experiment [2] (setting [21]), 0%; in experiment [4] (setting [22]), 0%; in experiment [6] (setting [23]), 5%. The inhibition of growth at 20 ppm in experiment [1] (setting [20]) is 99%; in experiment [2] (setting [21]), 26%; in experiment [4] (setting [22]) it was 3%; in experiment [5] (setting [18]) it was 17%; in experiment [6] (setting [23]), 20%.
Take `N#Cc1sc2c(=O)c3ccccc3c(=O)c=2sc1C#N` [dithianon]: the inhibition of growth at 0.8 ppm worked out at 0% in experiment [1] (alone, read-out: Efficacy %); 34% in experiment [2] (Diaporthe citri, 0.8 ppm, read-out: Efficacy); 0% in experiment [4] (setting [22]); 9% in experiment [6] (setting [23]). Moreover, the inhibition of growth at 4 ppm came to 71% in experiment [1] (alone, read-out: Efficacy %); 98% in experiment [2] (setting [21]); 39% in experiment [4] (setting [22]); 99% in experiment [5] (Cercospora beticola, 4 ppm, read-out: Efficacy %); 99% in experiment [6] (setting [23]). Besides, the inhibition of growth at 20 ppm stood at 100% in experiment [1] (alone, read-out: Efficacy %); 97% in experiment [2] (setting [21]); 100% in experiment [4] (setting [22]); 98% in experiment [5] (setting [18]); 98% in experiment [6] (setting [23]).
In the case of `COc1ccnc(C(=O)N[C@H]2COC(=O)[C@H](Cc3ccccc3)[C@@H](OC(=O)C(C)C)[C@H](C)OC2=O)c1OCOC(=O)C(C)C` [fenpicoxamid], the Efficacy % is 10% and 4% in experiment [1] (0.2 ppm, alone); 80% and 81% in experiment [1] (5.0 ppm, alone); 74% and 58% and 42% in experiment [5] (1.0 ppm); 86% and 78% in experiment [5] (5.0 ppm). The Efficacy in experiment [1] (applied alone, 5.0 ppm) is 64%; in experiment [2] (0.04 ppm), 0%; in experiment [2] (0.2 ppm), 5% and 0%; in experiment [2] (1.0 ppm), 87% and 73% and 75%; in experiment [2] (5.0 ppm), 94% and 93% and 90%; in experiment [4] (0.04 ppm) it was 0%. Also, the Efficacy is 0% in experiment [4] (0.2 ppm); 0% in experiment [4] (1.0 ppm); 0% in experiment [4] (5.0 ppm); 50% in experiment [6] (1.0 ppm); 74% in experiment [6] (5.0 ppm).
